# Tests used:
# Homo sapiens [1] = organism: Homo sapiens; experiment: Selectivity ratio for human histamine H3 receptor over human histamine H2 receptor
# [2] = Metabolic stability in mouse liver microsomes; type: ADME, Microsome
# Histamine H3 receptor [3] = molecular target: Histamine H3 receptor (Rattus norvegicus, UniProt Q9QYN8); experiment: Displacement of [3H]NAMH from rat histamine H3 receptor transfected in CHO cells; type: cell-based
# Liver microsome [4] = experiment: Metabolic stability in human liver microsomes; type: ADME
# Cytochrome P450 2D6 = Cytochrome P450 2D6 (Homo sapiens, UniProt P10635); experiment: Inhibition of CYP2D6 (unknown origin); type: ADME; conditions: human
# Chain of Cytochrome P450 2D6 (P10635 whole entry): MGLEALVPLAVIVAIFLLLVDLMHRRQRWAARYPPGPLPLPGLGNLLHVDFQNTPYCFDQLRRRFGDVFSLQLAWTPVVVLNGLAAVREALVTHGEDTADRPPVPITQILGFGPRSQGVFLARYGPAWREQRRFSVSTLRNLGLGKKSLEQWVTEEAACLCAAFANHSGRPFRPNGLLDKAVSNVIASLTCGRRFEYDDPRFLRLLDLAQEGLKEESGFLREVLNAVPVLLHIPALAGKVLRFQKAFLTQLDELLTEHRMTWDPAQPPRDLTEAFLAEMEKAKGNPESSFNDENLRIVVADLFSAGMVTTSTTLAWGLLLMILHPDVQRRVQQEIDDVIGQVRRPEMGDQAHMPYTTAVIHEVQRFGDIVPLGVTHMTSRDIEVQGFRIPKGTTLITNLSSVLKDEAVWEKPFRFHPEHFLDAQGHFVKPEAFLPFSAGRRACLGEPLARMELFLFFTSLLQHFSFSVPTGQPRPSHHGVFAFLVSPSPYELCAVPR
# Cytochrome P450 1A2 = molecular target: T1, Cytochrome P450 1A2 (Homo sapiens, UniProt P05177); experiment: Inhibition of CYP1A2 (unknown origin); type: ADME; conditions: human
# T1 sequence (P05177 whole entry): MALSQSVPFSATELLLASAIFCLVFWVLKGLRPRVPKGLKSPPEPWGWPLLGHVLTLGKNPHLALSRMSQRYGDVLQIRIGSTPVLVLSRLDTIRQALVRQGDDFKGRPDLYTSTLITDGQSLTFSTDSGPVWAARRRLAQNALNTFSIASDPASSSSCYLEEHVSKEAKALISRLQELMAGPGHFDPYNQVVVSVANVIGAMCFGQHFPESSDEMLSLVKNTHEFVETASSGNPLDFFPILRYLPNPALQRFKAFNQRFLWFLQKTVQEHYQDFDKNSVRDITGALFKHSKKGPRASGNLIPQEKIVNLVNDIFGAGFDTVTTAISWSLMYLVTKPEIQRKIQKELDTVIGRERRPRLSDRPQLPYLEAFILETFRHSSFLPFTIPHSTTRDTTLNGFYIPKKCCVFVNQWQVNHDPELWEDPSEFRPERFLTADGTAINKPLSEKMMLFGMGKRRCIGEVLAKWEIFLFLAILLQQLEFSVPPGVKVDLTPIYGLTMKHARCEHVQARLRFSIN
# Homo sapiens [5] = organism: Homo sapiens; experiment: Selectivity ratio for human histamine H3 receptor over human histamine H1 receptor
# Histamine H3 receptor [6] = molecular target: Histamine H3 receptor (Homo sapiens, UniProt Q9Y5N1); experiment: Displacement of [3H]NAMH from human histamine H3 receptor transfected in CHO cells; type: cell-based
# Chain of Histamine H3 receptor (Homo sapiens, UniProt Q9Y5N1) (Q9Y5N1 whole entry): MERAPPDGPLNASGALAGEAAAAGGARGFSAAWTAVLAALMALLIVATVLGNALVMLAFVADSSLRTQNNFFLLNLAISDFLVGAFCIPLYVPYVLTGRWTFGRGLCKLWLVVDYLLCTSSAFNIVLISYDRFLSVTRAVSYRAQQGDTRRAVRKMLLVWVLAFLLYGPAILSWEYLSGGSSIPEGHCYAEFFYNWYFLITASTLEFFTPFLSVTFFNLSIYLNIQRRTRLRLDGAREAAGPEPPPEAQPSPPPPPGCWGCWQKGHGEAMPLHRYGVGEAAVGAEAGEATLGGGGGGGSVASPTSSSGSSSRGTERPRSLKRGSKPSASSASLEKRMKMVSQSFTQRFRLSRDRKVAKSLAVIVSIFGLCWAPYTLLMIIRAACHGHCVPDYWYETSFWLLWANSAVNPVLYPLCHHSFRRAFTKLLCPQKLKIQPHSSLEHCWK
# Cytochrome P450 3A4 = Cytochrome P450 3A4 (Homo sapiens, UniProt P08684); experiment: Inhibition of CYP3A4 (unknown origin); type: ADME; conditions: human
# Chain of Cytochrome P450 3A4 (P08684 whole entry): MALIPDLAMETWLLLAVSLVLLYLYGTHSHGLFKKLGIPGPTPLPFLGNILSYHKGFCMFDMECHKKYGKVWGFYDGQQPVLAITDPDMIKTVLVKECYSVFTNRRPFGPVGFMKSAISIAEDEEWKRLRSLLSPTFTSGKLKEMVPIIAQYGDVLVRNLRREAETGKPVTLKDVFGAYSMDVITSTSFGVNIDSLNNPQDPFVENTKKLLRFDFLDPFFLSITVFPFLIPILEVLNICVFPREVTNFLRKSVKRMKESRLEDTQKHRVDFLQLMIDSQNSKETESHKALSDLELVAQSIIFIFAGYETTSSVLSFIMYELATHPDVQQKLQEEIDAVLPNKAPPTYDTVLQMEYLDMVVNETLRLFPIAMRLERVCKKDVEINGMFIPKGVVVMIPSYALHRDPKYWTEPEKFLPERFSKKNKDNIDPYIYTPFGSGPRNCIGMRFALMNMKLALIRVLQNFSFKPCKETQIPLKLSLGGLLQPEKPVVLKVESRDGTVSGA
# Liver microsome [7] = experiment: Metabolic stability in rat liver microsomes; type: ADME
# Homo sapiens [8] = organism: Homo sapiens; experiment: Selectivity ratio for human histamine H3 receptor over human histamine H4 receptor
# Liver microsome [9] = experiment: Metabolic stability in dog liver microsomes; type: ADME, Canis lupus familiaris
# Cytochrome P450 2C19 = Cytochrome P450 2C19 (Homo sapiens, UniProt P33261); experiment: Inhibition of CYP2C19 (unknown origin); type: ADME; conditions: human
# Chain of Cytochrome P450 2C19 (P33261 whole entry): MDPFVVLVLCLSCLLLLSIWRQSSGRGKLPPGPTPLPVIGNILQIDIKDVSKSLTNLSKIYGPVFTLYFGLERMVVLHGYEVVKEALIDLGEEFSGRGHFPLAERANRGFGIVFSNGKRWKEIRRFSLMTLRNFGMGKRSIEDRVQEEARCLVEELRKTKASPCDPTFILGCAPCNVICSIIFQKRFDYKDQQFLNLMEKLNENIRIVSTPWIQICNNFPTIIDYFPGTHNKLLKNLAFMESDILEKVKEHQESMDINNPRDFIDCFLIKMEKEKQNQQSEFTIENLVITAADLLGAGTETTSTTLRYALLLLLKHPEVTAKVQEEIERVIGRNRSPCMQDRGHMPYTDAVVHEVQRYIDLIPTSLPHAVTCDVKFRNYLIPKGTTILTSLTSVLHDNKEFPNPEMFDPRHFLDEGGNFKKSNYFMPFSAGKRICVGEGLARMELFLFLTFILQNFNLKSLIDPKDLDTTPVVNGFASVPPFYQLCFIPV
# Cytochrome P450 2C9 = Cytochrome P450 2C9 (Homo sapiens, UniProt P11712); experiment: Inhibition of CYP2C9 (unknown origin); type: ADME; conditions: human
# Chain of Cytochrome P450 2C9 (P11712 whole entry): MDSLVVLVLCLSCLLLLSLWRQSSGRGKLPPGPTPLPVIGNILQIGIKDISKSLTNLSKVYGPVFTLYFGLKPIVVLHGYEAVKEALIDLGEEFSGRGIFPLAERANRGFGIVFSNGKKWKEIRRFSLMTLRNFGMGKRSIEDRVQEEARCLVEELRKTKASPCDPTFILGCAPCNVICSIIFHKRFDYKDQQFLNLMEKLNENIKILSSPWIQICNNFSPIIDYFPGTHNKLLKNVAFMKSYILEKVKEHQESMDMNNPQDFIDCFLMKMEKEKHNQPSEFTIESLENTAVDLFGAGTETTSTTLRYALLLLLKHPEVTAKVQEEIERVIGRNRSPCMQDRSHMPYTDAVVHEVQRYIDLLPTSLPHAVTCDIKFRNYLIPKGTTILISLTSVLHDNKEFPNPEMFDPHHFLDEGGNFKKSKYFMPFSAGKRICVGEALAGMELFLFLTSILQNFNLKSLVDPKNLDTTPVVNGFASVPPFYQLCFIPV
# Chain of Histamine H3 receptor (Rattus norvegicus, UniProt Q9QYN8) (Q9QYN8 whole entry): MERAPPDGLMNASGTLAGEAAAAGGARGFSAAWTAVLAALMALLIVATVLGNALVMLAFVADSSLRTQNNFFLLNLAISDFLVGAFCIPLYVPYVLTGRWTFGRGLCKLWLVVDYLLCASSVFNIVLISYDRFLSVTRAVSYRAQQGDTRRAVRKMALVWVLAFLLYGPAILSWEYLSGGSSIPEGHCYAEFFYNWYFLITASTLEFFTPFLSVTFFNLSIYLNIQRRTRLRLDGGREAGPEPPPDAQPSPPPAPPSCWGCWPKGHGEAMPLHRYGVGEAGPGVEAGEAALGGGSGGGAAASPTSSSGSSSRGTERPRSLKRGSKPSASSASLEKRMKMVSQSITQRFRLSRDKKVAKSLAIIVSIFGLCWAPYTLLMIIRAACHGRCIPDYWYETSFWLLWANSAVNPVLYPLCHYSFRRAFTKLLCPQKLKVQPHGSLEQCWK
smiles,measurement,setting,value
CC(C)N1CCC(Oc2ccc(C3=NNC(=O)C4CC34)cc2)CC1 (racemic),Selectivity ratio,Homo sapiens [1],> 1000
same,Stability,[2],Stable
same,Ki,Histamine H3 receptor [3],51 nM
same,Stability,Liver microsome [4],Stable
same,inhibition (INH),Cytochrome P450 2D6,Not Active
same,inhibition (INH),Cytochrome P450 1A2,Not Active
same,Selectivity ratio,Homo sapiens [5],> 1000
same,Ki,Histamine H3 receptor [6],9.1 nM
same,inhibition (INH),Cytochrome P450 3A4,Not Active
same,Stability,Liver microsome [7],Stable
same,Selectivity ratio,Homo sapiens [8],> 1000
same,Stability,Liver microsome [9],Stable
same,inhibition (INH),Cytochrome P450 2C19,Not Active
same,inhibition (INH),Cytochrome P450 2C9,Not Active
